# Laboratory results published in patent US20250017948A1, “CANNABINOID COMPOSITIONS FOR GASTROESOPHAGEAL DISORDERS” (THE UNITED STATES GOVERNMENT AS REPRESENTED BY THE …, priority 2021, published 2025).
# Legend:
# Type in all cases: cell-based, human
# HET1a = settings: for effect on DCA-induced mitochondrial membrane depolarization: treated prior to and during DCA exposure, FIG. 1C-1D, combination at 1:5
# Procedure: MitoProbe JC-1 Assay Kit for Flow Cytometry (cat #M34152, ThermoFisher, Massachusetts, USA) was used to measure the mitochondrial membrane potential. Depending on the experimental group, cells were pre-treated with the CBG/Phytol admixture or DMSO and incubated for 2 hours at 37° C. in a CO2 incubator. Cells were then treated with DCA with the CBG/Phytol admixture or DMSO. After treatment, cell were loaded with 2 μM of JC-1 and incubated for 15 minutes at 37° C. Cytoplasmic JC-1 monomers were detected in the green spectrum (˜529 nm) while mitochondrial J-aggregates were detected in the red spectrum (˜590 nm). Results are representative of 2 and 3 independent repeats per cell line.
# These concentrations of DCA are found in esophageal aspirates of patients with GERD.
# Various ratios of the combination of CBG and phytol were explored to assess DCA-induced mitochondrial membrane depolarization.
# [1] = tested on: CP-A Barrett's esophagus cells; assay: ROS by CM-DCFDA fluorescence after low pH and bile acid cocktail (GER); settings: FIG. 6F
# Procedure: The cannabinoids referenced in the following examples were purchased from Cayman Chemical and brought up to a stock concentration of 100 mM in DMSO. Terpenes were purchased from Sigma Aldrich. Bile acid cocktail consisted of an equimolar mixture of glycocholate, taurocholate, glycodeoxycholate, glycochenodeoxycholate, and deoxycholate at a final concentration of 0.2 mM. This cocktail reflects the mixture of bile acids to which the distal esophagus is ordinarily exposed during gastroesophageal reflux
# Combinations of cannabinoids/terpenes were tested to determine whether they protected cells in the esophagus following acute exposure to a low pH environment (pH4.5) combined with a bile acid cocktail comprised of multiple physiologically-relevant secondary bile acids, which mimics the caustic environment during gastroesophageal reflux (GER). […] The cells were either immediately analyzed for ROS via fluorescent detection of CM-DCFDA or recovered for 24 hours and analyzed for DNA damage, via γ-H2AX. […] Furthermore, the combination of CBG and β-caryophyllene was tested in the residual cells and harvested 24 h post-treatment for assessment of DNA damage to obtain the γ-H2AX fluorescence plots in FIG. 6E. […]
# HET1A cells [2] = assay: Genomic instability: new copy number events on PMDA arrays; settings: daily treatment 14 days; DCA 100 μM; CBG/Phytol 1:5; baseline Day 0 genome
# Procedure: The impact of phytocannabinoids on acquisition of new genomic changes over time in human esophageal cells was assessed using Axiom™ Precision Medicine Diversity Arrays (PMDA; Affymetrix). HET1a cells, plated in T-150 flasks at a seeding density of 2,500 cells per cm^2, were divided into 4 experimental groups (n=2 each): (i) DMSO-treated controls, (ii) treated with 100 μM of DCA alone, (iii) treated with CBG/Phytol admixture alone, and (iv) treated with 100 μM of DCA and CBG/Phytol admixture. DCA and/or CBG/Phytol were freshly prepared daily by dissolving in DMSO and then added to the media. These cells were cultured for 14 consecutive days. […]
# Based on the examples above, it was hypothesized that increased stress-induced apoptosis along with reduced DNA damage and mitochondrial disruption may be concordant to reduced genomic instability. […] DNA from cultured and Day 0 cells was extracted and analyzed using PMDA arrays (Affymetrix). Genomic instability in cultured cells was assessed by identifying new copy number events (both deletions and amplifications), using genome of “Day 0” cells as baseline. […] Compared to control cells, DCA induced a marked (>6-fold) increase in genomic instability, as assessed from the acquisition of new copy number events over a period of […]. […]
# HET1A cells [3] = assay: Cell viability via XTT assay; settings: DCA for 24 hours, then fresh media; FIG. 4A
# Procedure: Cells were cultured prior to exposure to the indicated test articles. After treatment, as indicated, cells were washed and resuspended in a phenol red-free RPMI or DMEM and subsequently treated with the XTT assay (ThermoFisher, Waltham, MA, USA) or the MTS assay (Promega, Madison, WI, USA) following manufacturer protocols.
# In this example, the role of CBG and Phytol on hallmarks of apoptosis resistance is described. […] Cells were pretreated with or without CBG/Phytol and then treated with DCA or a vehicle control for 24 hours. On the following day, the cells were incubated with fresh media, without DCA, and with or without CBG and/or Phytol. Cell viability was determined via XTT assay.
# HET1A cells [4] = assay: Muse Multi-Color DNA Damage kit (ATM and H2AX activation); settings: preliminary screen, FIG. 1B; cannabinoid:terpene 1:5, with DCA
# Procedure: The activation of ATM and H2AX (a marker of DNA breaks) was measured using the Muse Multi-Color DNA Damage kit (MilliporeSigma, Burlington, MA, USA) according to the manufacturer's instructions. The percentage of ATM activated cells and H2AX activated cells was determined as dual activation by monitoring expression of both the ATM and γ-H2AX, using the Muse Cell Analyzer (MilliporeSigma, Burlington, MA, USA). Expression of γ-H2AX was determined by flow cytometry on an Accuri C6 flow cytometer following manufacturer protocol (MilliporeSigma, Burlington, MA, USA).
# Combinations of terpenes and cannabinoids were introduced to assess the effect on DNA damage using the Muse Multicolor DNA Damage Kit (see methods for details). Based on a preliminary screen shown in FIG. 1B, it was concluded that DCA induced the highest proportion of DNA damage, along with the addition of […] (THC) containing groups, >5% vs. an untreated group.
smiles,measurement,setting,value
C/C(=C\CO)CCC[C@H](C)CCC[C@H](C)CCCC(C)C [phytol],effect on DCA-induced mitochondrial membrane depolarization,HET1a,not reproduced by either compound alone in a statistically significant manner
"CCCCCc1cc(O)c(C/C=C(\C)CCC=C(C)C)c(O)c1 [CBG, cannabigerol]",effect on DCA-induced mitochondrial membrane depolarization,HET1a,not reproduced by either compound alone in a statistically significant manner
"C[C@H](CCC(=O)O)[C@H]1CC[C@H]2[C@@H]3[C@@H](O)C[C@@H]4C[C@H](O)CC[C@]4(C)[C@H]3CC[C@]12C [UDCA, ursodeoxycholic acid]","mitigation of the oxidative insult of GER (CM-DCFDA fluorescence), comparison with catalase and UDCA",[1],protective effect
"C[C@H](CCC(=O)O)[C@H]1CC[C@H]2[C@@H]3CC[C@@H]4C[C@H](O)CC[C@]4(C)[C@H]3C[C@H](O)[C@]12C [DCA, deoxycholic acid]",increase in genomic instability (new copy number events) compared to control cells,HET1A cells [2],> 6 fold
same,number of cells after DCA alone,HET1A cells [3],significant reduction in number of cells by 48 hours
same,proportion of DNA damage (% ATM and H2AX positive cells) vs. an untreated group,HET1A cells [4],> 5%
same,dose sufficient to induce membrane polarization,"HET1a; acute exposure to DCA, JC-1 red/green",100 µM
same,dosing that induced severe mitochondrial membrane depolarization and cellular apoptosis,HET1a; human,above 300 μM
